According to patent publication US11414385B2, “Compounds and methods for treating, detecting, and identifying compounds to treat apicomplexan parasitic diseases” (The University of Chicago, priority 2015, dated 2022):
In brackets after ≈: the same amount, converted by molar mass. Several values for one entry are separate records, joined by “and”; a condition that tells them apart may be missing. Identical values can stand only once. Entries after “also recorded” stand apart in the source; their conditions may differ. Like-named read-outs stand apart in the source and are kept apart here.

Key:
[1] = Microsomal metabolic stability, mouse; type: in vitro ADME
[2] = Aqueous kinetic solubility pH 7.4; type: physicochemical; settings: for solubility kinetic: PBS pH 7.4
[3] = system: S. cerevisiae wild type parental AD1-9 strain; assay: Yeast growth inhibition on glycerol medium, wild type; type: cell-based, Saccharomyces cerevisiae; settings: 1 mM, 100, 5 and 1 μM
Method: Three S. cerevisiae strains were used: M221Q and M221F cytochrome b mutants and wild type. They share the same nuclear genetic background deriving from AD1-9 (kindly given by M. Ghislain, UCL, Belgium). AD1-9 harbors multiple deletions in the ABC transporter genes that render the strain more sensitive to drugs than standard yeast strains^S65.
Protocol: Yeast strains were grown over 48 hours at 33° C. in liquid YPG medium [1% yeast extract, 2% (wt/vol) peptone, and 3% (vol/vol) glycerol). Cultures were diluted to an OD600 of 0.05 and grown for 2 hrs. Cultures were then combined with YPG containing 6% melted agar for a total volume of 15-20 mL and poured onto OmniTray single-well rectangular plates that measured 86 mm by 128 mm (ThermoScientific). Filter paper disks (7 mm diameter, […]) were placed onto the cooled agar plates. […] A single disk with DMSO on each plate was used as a control. Plates were incubated at 33° C. Images were obtained after 4 days using GelDoc XR Imaging System (BioRad) and Quantity One software. Drug effect was assessed by the presence and size of a zone of inhibition around the disks.

[4] = system: T. gondii bradyzoites (EGS strain); assay: EGS strain bradyzoite assay (cysts in HFF, dolichos/BAG1 staining); type: cell-based, Toxoplasma gondii
Method: (§1) HFF cells were grown in IMDM (1×, [+] glutamine, [+] 25 mM HEPES, [+] Phenol red, 10% FBS, [Gibco, Denmark]) on removable, sterile glass disks in the bottom of a clear, flat-bottomed 24-well plate. Cultures were infected with 3×10^4 parasites (EGS strain) per well, in 0.5 mL media and plate was returned to incubator at 37° C. overnight. The following day, the media was removed and clear IMDM and compounds were added to making various concentrations of the drug, to a total volume of 0.5 mL. Two wells were filled with media only, as a control. Plates were returned to the 37° C. incubator for 72 hours.
Efficacy was determined following fixation. Staining was used to determine the numbers of cysts in cultures without and with treatment with the test compounds. Cells were fixed using 4% paraformaldehyde and stained with Fluorescein-labeled Dolichos Biflorus Agglutinin, DAPI, and anti-BAG1, and anti-SAG1. Disks were removed and mounted onto glass slides and visualized using microscopy (Nikon Tl7). Slides were also scanned using a CRi Pannoramic Scan Whole Slide Scanner and viewed using Panoramic Viewer Software.
as §1, with “[gibco,” for “[Gibco,”, “2” for “Two”, “72 hours, and checked once every 24” for “72”, “hours. If tachyzoites were visible in the control before 72 hours, the cells were fixed and stained.” for “hours.”
Cells were fixed using 4% paraformaldehyde and stained with Fluorescein-labeled Dolichos Biflorus Agglutinin, DAPI, and BAG1. Disks were removed and mounted onto glass slides and visualized using microscopy (Nikon Tl7). Slides were scanned using a CRi Pannoramic Scan Whole Slide Scanner and viewed using Panoramic Viewer Software. Effects of the compounds were quantified by counting cysts in the controls and treated cells. Cysts and persisting organisms were counted in a representative field of view and then multiplied by a factor determined by the total area of the disk in order to estimate the number of cysts and organisms in each condition.
HFF cells were grown in IMDM (1×, [+] glutamine, [+] 25 mM HEPES, [+] Phenol red, 10% FBS, [gibco, Denmark]) on removable, sterile glass disks in the bottom of a clear, flat-bottomed 24-well plate. Cultures were infected with 3×10^4 parasites (EGS strain) per well, in 0.5 mL media and plate was returned to incubator at 37° C. overnight. The following day, the media was removed and clear IMDM and compounds were added to making various concentrations of the drug, to a total volume of 0.5 mL. 2 wells were filled with media only, as a control. Plates were returned to the 37° C. incubator for 72 hours, and checked once every 24 hours. If tachyzoites were visible in the control before 72 hours, the cells were fixed and stained. Cells were fixed using 4% paraformaldehyde and stained with Fluorescein-labeled Dolichos Biflorus Agglutinin, DAPI, and BAG1. Disks were removed and mounted onto glass slides and visualized using microscopy (Nikon Tl7). Slides were scanned using a CRi Pannoramic Scan Whole Slide Scanner and viewed using Panoramic Viewer Software. Effects of the compounds were quantified by counting cysts in the controls and treated cells. Cysts and persisting organisms were counted in a representative field of view and then multiplied by a factor determined by the total area of the disk in order to estimate the number of cysts and organisms in each condition. Data was collected using Gen5 software. IC50 was calculated by graphical analysis in Excel.

[5] = Cytotoxicity assay with WST-1 in HFF; type: cell-based; settings: human, human foreskin fibroblasts (HFF); read-out: HFF Toxicity CC50
Method: (§2) Toxicity assays were conducted using WST-1 cell proliferation reagent (Roche). HFF were grown on a flat, clear-bottomed, black 96-well plate. Confluent HFF were treated with inhibitory compounds at concentrations equal to those being tested in challenge assays. Compounds were diluted in IMDM-C, and 20 μl were added to each designated well, with triplicates for each condition. A gradient of 2 fold-decreasing concentrations of DMSO in clear IMDM-C was used as a control. The plate was incubated for 72 hours at 37° C. 10 μl of WST-1 reagent (Roche) were added to each well and the cells were incubated for 30 to 60 minutes. Absorbance was read using a fluorometer at 420 nm. A higher degree of color change (and absorbance) indicated mitochondrial activity and cell viability.
as §2, with “(Roche) as described in Fomovska, et. al. (18,19).” for “(Roche).”, “of 10 μM and 50 μM.” for “equal to those being tested in challenge assays.”, “DMSO from 10% to 0%” for “DMSO”, “fluorimeter” for “fluorometer”

[6] = Microsomal metabolic stability, human; type: in vitro ADME
[7] = system: P. falciparum strains D6, TM91-C235, W2, C2B; assay: Malaria SYBR Green I-Based Fluorescence (MSF) Assay; type: cell-based, Plasmodium falciparum; settings: Plasmodium falciparum, read-out: P. falciparum IC50
Method: Testing of P. falciparum: D6 is a drug sensitive strain from Sierra Leone, C235 is a multi-drug resistant strain from Thailand, W2 is a chloroquine resistant strain from Thailand, and C2B has resistance to a variety of drugs including atovaquone.
D6 is a drug sensitive strain from Sierra Leone, C235 is a multi-drug resistant strain from Thailand, W2 is a chloroquine resistant strain from Thailand, and C2B has resistance to a variety of drugs including atovaquone. These assays were performed as described.
(§3) Compound activity against P. falciparum, a causative agent of malaria, was tested using the Malaria SYBR Green I—Based Fluorescence (MSF) Assay. This; microtiter plate drug sensitivity assay uses the presence of malarial DNA as a measure of parasitic proliferation in the presence of antimalarial drugs or experimental compounds based on modifications of previously described methods by Plouffe et al (20) and Johnson et al. As the intercalation of SYBR Green I dye and its resulting fluorescence is relative to parasite growth, a test compound that inhibits the growth of the parasite will result in a lower fluorescence.
Selected compounds were examined for activity against four strains of P. falciparum: D6 (CDC/Sierra Leone), a drug-sensitive strain readily killed by chloroquine, TM91-C235, a multi-drug resistant strain resistant to chloroquine, W2, a chloroquine resistant strain from Thailand, and C2B has resistance to a variety of drugs including atovaquone.
D6 is a drug sensitive strain from Sierra Leone, C235 is a multi-drug resistant strain from Thailand, W2 is a chloroquine resistant strain from Thailand, and C2B has resistance to a variety of drugs including atovaquone. These assays were performed using standard protocols.
as §3, with “known in the art.” for “by Plouffe et al (20) and Johnson et al.”, “fluorescence. Selected compounds were examined for activity against four strains of P. falciparum: D6 (CDC/Sierra Leone), a drugsensitive strain readily killed by chloroquine, TM91-C235, a multi-drug resistant strain resistant to chloroquine, W2, a chloroquine resistant strain from Thailand, and C2B has resistance to a variety of drugs including atovaquone.” for “fluorescence.”

FaSSIF solubility pH 6.5 = type: physicochemical; settings: pH 6.5
[8] = system: human foreskin fibroblasts (HFF); assay: Cytotoxicity assay with WST-1 in HFF; type: cell-based; settings: 10 μM and 50 μM, WST-1
Method: as §2
as §2, with “(Roche) as described in Fomovska, et. al. (18,19).” for “(Roche).”, “of 10 μM and 50 μM.” for “equal to those being tested in challenge assays.”, “DMSO from 10% to 0%” for “DMSO”, “fluorimeter” for “fluorometer”

RH-YFP = assay: Assessment of compound degradation and microbicidal effect on Toxoplasma; type: cell-based, Toxoplasma gondii
Method: HFF were cultured in a 96-well plate and infected with RH-YFP as described above on Day 0, 20 μL of compound was added to 9 wells for each compound and concentration (3 conditions, 3 wells per condition). In condition I, media was removed and replaced with fresh media on Day 3. In condition II, media was removed and replaced with fresh media and more compound on Day 3. In condition III, media was not replaced on Day 3, nor was the compound refreshed. On Day 6, media was removed and replaced with clean media in all wells. On Day 3, 6, and 9 plate was read in the fluorimeter and analyzed graphically in Prism (GraphPad Software).

MDR1 = assay: in vitro; type: in vitro ADME; settings: dog, MDCK-MDR1, MDCK-MDR1 Efflux Ratio
in vitro = in vitro ADME; settings: dog, MDCK-MDR1

With `Cc1[nH]c2ccccc2c(=O)c1-c1ccc(Oc2ccc(OC(F)(F)F)cc2)cc1` [ELQ271, 2-methyl-3-(4-(4-(trifluoromethoxy)phenoxy)phenyl) quinolin-4(1H)-one, reference compound] the “Mouse liver microsomes T1/2” value [1] was 7.4688 h, the solubility ([2]; aqueous buffer, kinetic from dmso stock, 100 mM Phosphate Buffer (pH 7.4)) was 0.15 µM (≈ 0.0617 µg/mL) and the “growth inhibition of wild type yeast” value [3] was “effective”. The “reduction of EGS cysts in vitro” value ([4]; 10 μM) was “reduce the EGS cysts; also recorded: inhibited EGS in vitro”.
For `Cc1[nH]c2ccccc2c(=O)c1-c1ccc(Oc2ccc(OC(F)(F)F)cc2)cc1` [ELQ 271, reference compound], the CC50 at 72 h [5] was 20 µM, the “Mouse microsomal stability T1/2” value [1] was greater than 3.33 h and the half-life ([1]; mouse, liver microsomes, read-out: Mouse microsomal stability T1/2) was greater than 3.33 h. The “Human microsomal stability T1/2” value [6] was 2.87 h and 2.865 h, the solubility kinetic [2] was 0.15 µM (≈ 0.0617 µg/mL) and the IC50 ([7]; C2B strain (multi-drug resistant, atovaquone resistant)) was 0.13 µM. The IC50 ([7]; D6 strain (drug sensitive)) was 0.03 µM, the IC50 ([7]; TM91C235 strain (multi-drug resistant)) was 0.09 µM and the IC50 ([7]; W2 strain (chloroquine resistant)) was 0.1 µM. It also gave an IC50 ([4]; Toxoplasma gondii, EGS strain, read-out: T. gondii Bradyzoite IC50) of 1 µM and a solubility (FaSSIF solubility pH 6.5) of 3.4 µM (≈ 1.4 µg/mL).
In the case of `Cc1[nH]c2c(c(=O)c1-c1ccc(Oc3ccc(Cl)cc3)cc1)CCCC2` [JAG050, 3-(4-(4-chlorophenoxy)phenyl)-2-methyl-5,6,7,8-tetrahydroquinolin-4(1H)-one], the “toxicity to human foreskin fibroblasts” value [8] is reported as “no toxicity”, the “Mouse liver microsomes T1/2” value [1] is reported as 1.142 h and the “compound degradation over time” value (RH-YFP; 6-day exposure in culture) is reported as “did not appear that the compound was being degraded over time”. For the same molecule, the “microbicidal effect” value (RH-YFP; RH-YFP, media replaced) was “Neither compound was found to be microbicidal”, the efflux ratio (MDR1) was less than 1.5 and the Papp A→B (in vitro) was greater than 10 ×10⁻⁶ cm/s. The “Human liver microsomes T1/2” value [6] was 1.651 h, the solubility kinetic ([2]; PBS, pH 7.4, aqueous buffer, kinetic from dmso stock) was 16 µM (≈ 5.85 µg/mL) and the “reduction in the number of true cysts and small organisms” value ([4]; 1 μM and 10 μM, EGS) was “statistically significant reduction”. For the same molecule, the Pseudocysts ([4]; part a, 1 μM) was 23.25 ± 10.31, the Small organisms ([4]; part a, 1 μM) was 58 ± 24 and the “True Cysts” value ([4]; part a, 1 μM) was 0.25 ± 0.5. For the same molecule, the Pseudocysts ([4]; part a, 10 μM) was 20.5 ± 2.9, the Small organisms ([4]; part a, 10 μM) was 31 ± 16 and the “True Cysts” value ([4]; part a, 10 μM) was 1 ± 0.82. For the same molecule, the Pseudocysts ([4]; part b, 1 μM) was 2269, the Small organisms ([4]; part b, 1 μM) was 5086 and the “True Cysts” value ([4]; part b, 1 μM) was 29. For the same molecule, the Pseudocysts ([4]; part b, 10 μM) was 1921, the Small organisms ([4]; part b, 10 μM) was 3018 and the “True Cysts” value ([4]; part b, 10 μM) was 88.
